Counter-ions that a name gives are not always drawn. Like-named read-outs stand apart in the source and are kept apart here.

The source of these data is patent publication US10941114B2, “Small molecule lipid II inhibitors” (University Of Maryland, Baltimore, priority 2015, dated 2021).

Experiment in all cases: Antibacterial activity assay (MIC, broth dilution)
Type in all cases: cell-based
Background: Dilution methods test growth across graded concentrations, often in twofold steps.

For experiment [1], the system named is Enterococcus faecalis. The settings on record: for MIC: Enterococcus faecalis.
In experiment [2] the test system is Enterococcus faecium. To be noted: Enterococcus faecium. How it is done:
(§1) Determination of the Minimal Inhibitory Concentrations (MIC) by dilution was carried out by broth dilution according to CLSI standards. See CLSI, Methods for Dilution Antimicrobial Susceptibility Tests for Bacteria That Grow Aerobically; Approved Standard—Eighth Edition. 2009, the contents of which are hereby incorporated by reference. Briefly, the minimum inhibitory concentration MIC, is the lowest concentration of a compound that prevents visible growth of a bacterium, in other words at which it has bacteriostatic activity.
For these tests, cation-adjusted Mueller Hinton broth, containing 10% brain-heart infusion (BHI) was used. Concentrations (MIC) are given in μg/mL. The compound was […].
(§2) Compounds were tested for MIC by methods known in the art and described in CLSI, Methods for Dilution Antimicrobial Susceptibility Tests for Bacteria That Grow Aerobically; Approved Standard—Tenth Edition. CLSI document M07-A10. Wayne, Pa.: Clinical and Laboratory Standards Institute, 2015, which is hereby incorporated by reference for these methods.
(§3) Selected compounds also were tested by broth microdilution methods known in the art and described in CLSI, Methods for Dilution Antimicrobial Susceptibility Tests for Bacteria That Grow Aerobically; Approved Standard—Tenth Edition. CLSI document M07-A10. Wayne, Pa.: Clinical and Laboratory Standards Institute, 2015, which is hereby incorporated by reference. Structures of selected compounds in the tables are listed below.

Experiment [3] relates to Staphylococcus aureus. To be noted: for MIC: Staphylococcus aureus.
In experiment [4] the test system is Acinetobacter baumannii. To be noted: Acinetobacter baumannii; Table 16; CLSI M07-A10 dilution method; read-out: MIC A. baumannii. As for the experimental part: as §1, §2, §3
Where [5] appears, read: cation-adjusted Mueller Hinton broth, 10% BHI, read-out: MIC E. faecalis 51299.
[6] abbreviates: cation-adjusted Mueller Hinton broth, 10% BHI, read-out: MIC E. faecalis 51575.
Where [7] appears, read: cation-adjusted Mueller Hinton broth, 10% BHI, read-out: MIC E. faecalis C99707.
The mark [8] stands for this setting: cation-adjusted Mueller Hinton broth, 10% BHI, read-out: MIC E. faecium C110914.
Where [9] appears, read: cation-adjusted Mueller Hinton broth, 10% BHI, read-out: MIC E. faecium IH79985.
Setting [10] is: cation-adjusted Mueller Hinton broth, 10% BHI, read-out: MIC E. faecium S1559.
[11] abbreviates: Table 16, CLSI M07-A10 dilution method, read-out: MIC S. aureus.
Setting [12] is: Table 16, CLSI M07-A10 dilution method, read-out: MIC E. faecium.

Consider `Cc1ccc(-c2cc(/C=C/C=C3/N(C)c4ccccc4C3(C)C)[o+]c(-c3ccc(C)cc3)c2)cc1` [Compound 6jc67A, 2,4-di-p-tolyl-6-((1E,3E)-3-(1,3,3-trimethylindolin-2-ylidene)prop-1-en-1-yl)pyrylium boron tetrafluoride salt], for which the MIC – broadly, the smallest concentration in the dilution series that meets the test's criterion for growth inhibition – worked out at 1 µg/mL in experiment [1] (setting [5]); 1 µg/mL in experiment [1] (setting [6]); 1 µg/mL in experiment [1] (setting [7]); 1 µg/mL in experiment [2] (setting [8]); 2 µg/mL in experiment [2] (setting [9]); 1 µg/mL in experiment [2] (setting [10]).
For `CCc1ccc(-c2cc(/C=C/c3cc4c5c(c3)CCCN5CCC4)[o+]c(-c3ccc(CC)cc3)c2)cc1` [Compound 6jc69-1, (E)-2,4-bis(4-ethylphenyl)-6-(2-(1,2,3,5,6,7-hexahydropyrido[3,2,1-ij]quinolin-9-yl)vinyl)pyrylium boron tetrafluoride salt], the MIC in experiment [1] (setting [5]) came to 1 µg/mL; in experiment [1] (setting [6]), 2 µg/mL; in experiment [1] (setting [7]) it was 1 µg/mL; in experiment [2] (setting [8]) it was 4 µg/mL; in experiment [2] (setting [9]) it was 8 µg/mL; in experiment [2] (setting [10]), 2 µg/mL.
Consider `Cc1ccc(-c2cc(/C=C/c3cc4c5c(c3)CCCN5CCC4)[o+]c(-c3ccc(C)c(C)c3)c2)cc1C` [Compound 6jc69-3, (E)-2,4-bis(3,4-dimethylphenyl)-6-(2-(1,2,3,5,6,7-hexahydropyrido[3,2,1-ij]quinolin-9-yl)vinyl)pyrylium boron tetrafluoride salt], for which the minimum inhibitory concentration (MIC) in experiment [1] (setting [5]) came to 1 µg/mL; in experiment [1] (setting [6]), 2 µg/mL; in experiment [1] (setting [7]), 1 µg/mL; in experiment [2] (setting [8]), 2 µg/mL; in experiment [2] (setting [9]) it was 4 µg/mL; in experiment [2] (setting [10]) it was 2 µg/mL.
Regarding `CN(C)c1ccc(/C=C/c2cc(-c3ccc(Br)cc3)cc(-c3ccc(Br)cc3)[n+]2C)cc1.[I-]` [Compound 9, (E)-2,4-bis(4-bromophenyl)-6-(4-(dimethylamino)styryl)-1-methylpyridin-1-ium iodide], the MIC in experiment [3] (setting [11]) was determined as 1 µg/mL; in experiment [4], 8 µg/mL; in experiment [2] (setting [12]) it was 8 µg/mL.
For `Cc1ccc(-c2cc(/C=C/c3ccc(N(C)C)cc3)[n+](C)c(-c3ccc(Br)cc3)c2)cc1` [Compound 9a], the figures for the MIC in experiment [3] (setting [11]), in experiment [4] and in experiment [2] (setting [12]) were 0.5 µg/mL, 4 µg/mL and 4 µg/mL, respectively.
Regarding `CN(C)c1ccc(/C=C/c2cc(-c3cccc(Br)c3)cc(-c3ccc(Br)cc3)[n+]2C)cc1` [Compound 9b], the results for the MIC in experiment [3] (setting [11]), in experiment [4] and in experiment [2] (setting [12]) were 1 µg/mL, 16 µg/mL and 2 µg/mL, respectively.
Taken in the same sequence, the figures for `CN(C)c1ccc(/C=C/c2cc(-c3ccc(Cl)cc3)cc(-c3ccc(Br)cc3)[n+]2C)cc1.[I-]` [Compound 9c, (E)-2-(4-bromophenyl)-4-(4-chlorophenyl)-6-(4-(dimethylamino)styryl)-1-methylpyridin-1-ium iodide] were 0.5 µg/mL, 16 µg/mL and 4 µg/mL.
In the case of `Cc1ccc(/C=C/c2cc(-c3ccc(Br)cc3)cc(-c3ccc(Br)cc3)[n+]2C)cc1.[I-]` [Compound 9d, (E)-2,4-bis(4-bromophenyl)-1-methyl-6-(4-methylstyryl)pyridin-1-ium iodide], the MIC is 1 µg/mL in experiment [3] (setting [11]), > 64 µg/mL in experiment [4] and 4 µg/mL in experiment [2] (setting [12]).
On to `CC[n+]1c(/C=C/c2ccc(N(C)C)cc2)cc(-c2ccc(Br)cc2)cc1-c1ccc(C)cc1.[I-]` [Compound 9e1, (E)-4-(4-bromophenyl)-2-(4-(dimethylamino)styryl)-1-ethyl-6-(p-tolyl)pyridin-1-ium iodide], for which the MIC amounted to 2 µg/mL in experiment [3] (setting [11]), 4 µg/mL in experiment [4] and 2 µg/mL in experiment [2] (setting [12]).
Take `CC[n+]1c(/C=C/c2ccc(N(C)CCO)cc2)cc(-c2ccc(Br)cc2)cc1-c1ccc(C)cc1` [Compound 9e2]: the MIC in experiment [3] (setting [11]) was found to be 2 µg/mL; in experiment [4] it was 4 µg/mL; in experiment [2] (setting [12]), 4 µg/mL.
In the case of `CCC[n+]1c(/C=C/c2ccc(N(C)C)cc2)cc(-c2ccc(Br)cc2)cc1-c1ccc(C)cc1.[I-]` [Compound 9e3, (E)-4-(4-bromophenyl)-2-(4-(dimethylamino)styryl)-1-propyl-6-(p-tolyl)-pyridin-1-ium iodide], the MIC in experiment [3] (setting [11]) was determined as 0.5 µg/mL; in experiment [4], 2 µg/mL; in experiment [2] (setting [12]), 2 µg/mL.
As for `CCN(CC)c1ccc(/C=C/c2cc(-c3ccc(Br)cc3)cc(-c3ccc(Br)cc3)[n+]2C)cc1.[I-]` [Compound 9f, (E)-2,4-bis(4-bromophenyl)-6-(4-(diethylamino)styryl)-1-methylpyridin-1-ium iodide], the MIC in experiment [3] (setting [11]) was found to be 1 µg/mL; in experiment [4], 32 µg/mL; in experiment [2] (setting [12]), 2 µg/mL.
On to `CN(CCO)c1ccc(/C=C/c2cc(-c3ccc(Br)cc3)cc(-c3ccc(Br)cc3)[n+]2C)cc1.[I-]` [Compound 9g, (E)-2,4-bis(4-bromophenyl)-6-(4-((2-hydroxyethyl)(methyl)amino)styryl)-1-methylpyridin-1-ium iodide], for which the values for the MIC in experiment [3] (setting [11]), in experiment [4] and in experiment [2] (setting [12]) were 16 µg/mL, 32 µg/mL and 8 µg/mL, respectively.
For the compound `CCN(C)c1ccc(/C=C/c2cc(-c3ccc(Br)cc3)cc(-c3ccc(Br)cc3)[n+]2C)cc1.[I-]` [Compound 9h, (E)-2,4-bis(4-bromophenyl)-6-(4-(ethyl(methyl)amino)styryl)-1-methylpyridin-1-ium iodide], the MIC in experiment [3] (setting [11]) is 16 µg/mL; in experiment [4], 8 µg/mL; in experiment [2] (setting [12]) it was 8 µg/mL.
Regarding `CCN(CC)c1ccc(/C=C/c2cc(-c3ccc(Br)cc3)cc(-c3ccc(Br)cc3)[n+]2C)cc1F.[I-]` [Compound 9j, (E)-2,4-bis(4-bromophenyl)-6-(4-(diethylamino)-3-fluorostyryl)-1-methyl-pyridin-1-ium iodide], the figures for the MIC in experiment [3] (setting [11]), in experiment [4] and in experiment [2] (setting [12]) were 32 µg/mL, 64 µg/mL and 32 µg/mL, respectively.
For the compound `CN(CCC#N)c1ccc(/C=C/c2cc(-c3ccc(Br)cc3)cc(-c3ccc(Br)cc3)[n+]2C)cc1.[I-]` [Compound 9k, (E)-2,4-bis(4-bromophenyl)-6-(4-((2-cyanoethyl)(methyl)amino)styryl)-1-methylpyridin-1-ium iodide], the MIC amounted to 32 µg/mL in experiment [3] (setting [11]), 64 µg/mL in experiment [4] and 32 µg/mL in experiment [2] (setting [12]).
On to `CN(C)c1ccc(/C=C/c2cc(-c3ccc(Br)cc3)cc(-c3cccc(Br)c3)[n+]2C)cc1.[I-]` [Compound 9l, (E)-2-(3-bromophenyl)-4-(4-bromophenyl)-6-(4-(dimethylamino)styryl)-1-methylpyridin-1-ium iodide], for which the MIC amounted to 8 µg/mL in experiment [3] (setting [11]), 16 µg/mL in experiment [4] and 4 µg/mL in experiment [2] (setting [12]).
The corresponding values for `CCN(CC)c1ccc(/C=C/c2cc(-c3ccc(Br)cc3)cc(-c3cccc(Br)c3)[n+]2C)cc1.[I-]` [Compound 9m, (E)-2-(3-bromophenyl)-4-(4-bromophenyl)-6-(4-(diethylamino)styryl)-1-methylpyridin-1-ium iodide] are 8 µg/mL, 8 µg/mL and 4 µg/mL.
Turning to `Cc1ccc(-c2cc(-c3ccc(Cl)cc3)cc(/C=C/c3ccc(N(C)C)cc3)[n+]2C)cc1.[I-]` [Compound 9n, (E)-4-(4-chlorophenyl)-2-(4-(dimethylamino)styryl)-1-methyl-6-(p-tolyl)-pyridin-1-ium iodide], the results for the MIC in experiment [3] (setting [11]), in experiment [4] and in experiment [2] (setting [12]) were 4 µg/mL, 4 µg/mL and 2 µg/mL, respectively.
As to `CCN(CC)c1ccc(/C=C/c2cc(-c3ccc(Cl)cc3)cc(-c3ccc(C)cc3)[n+]2C)cc1.[I-]` [Compound 9o, (E)-4-(4-chlorophenyl)-2-(4-(diethylamino)styryl)-1-methyl-6-(p-tolyl)pyridin-1-ium iodide], the MIC turned out to be 32 µg/mL in experiment [3] (setting [11]), 16 µg/mL in experiment [4] and 16 µg/mL in experiment [2] (setting [12]).
As for `CN(CCC#N)c1ccc(/C=C/c2cc(-c3ccc(F)cc3)cc(-c3ccc(F)cc3)[o+]2)cc1.F[B-](F)(F)F` [drawing 385], the minimal inhibitory concentration (MIC) was > 64 µg/mL in experiment [3] (Table 21, read-out: Staphylococcus aureus MIC) and > 64 µg/mL in experiment [1] (Table 21, read-out: Escherichia feacalis MIC).
In experiment [3] (Staphylococcus aureus USA 300 strain, broth microdilution), “(E)-4-(4-((2-cyanoethyl)(methyl)amino)phenyl)-2-(4-(dimethylamino)styryl)-6-(4-fluorophenyl)-1-methylpyridin-1-ium iodide salt [Compound 3jc01-5]” returned an MIC SA USA300 of 1 µg/mL. In addition, the MIC EF 15951 in experiment [1] (Enterococcus faecalis 15951, broth microdilution) stood at 4 µg/mL.
